Target: human adenosine A2b receptor (Homo sapiens (Human), UniProt P29275)
Test: Cellular in vitro reporter gene test for A2b receptor activity (CHO-K1, CRE-luciferase, NECA stimulation)
Format: cell-based
Settings: recombinant CHO-K1 cell line, CRE-luciferase reporter, antagonism of EC50 concentration of NECA; in some cases means of several determinations, rounded to two significant figures; read-out: A2b receptor IC50
Procedure, shortened: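 CHO-K1 cells with CRE-driven luciferase; antagonists co-incubated with NECA at its EC50, determined in a pre-experiment on each test day. Luciferase read by luminescence 3 h after NECA addition.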

Sequence of human adenosine A2b receptor (P29275 whole entry): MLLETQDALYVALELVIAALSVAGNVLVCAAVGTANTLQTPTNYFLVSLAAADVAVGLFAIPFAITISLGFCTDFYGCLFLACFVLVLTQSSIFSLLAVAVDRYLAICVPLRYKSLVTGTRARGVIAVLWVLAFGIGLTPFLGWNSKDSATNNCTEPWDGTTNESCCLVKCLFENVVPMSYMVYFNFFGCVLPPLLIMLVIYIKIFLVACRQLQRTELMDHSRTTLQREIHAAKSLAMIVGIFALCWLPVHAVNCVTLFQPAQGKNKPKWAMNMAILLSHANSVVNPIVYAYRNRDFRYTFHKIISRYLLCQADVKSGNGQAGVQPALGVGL

How did the IC50 turn out when `CCOCCn1c(=O)n(CC(F)F)c(=O)c2c(C)c(CN3CCNC3=O)sc21` [Example 215, 3-(2,2-Difluoroethyl)-1-(2-ethoxyethyl)-5-methyl-6-[(2-oxoimidazolidin-1-yl)methyl]thieno[2,3-d]pyrimidine-2,4(1H,3H)-dione] was run?
The IC50 was 45 nM.

For `Cc1c(CN2CCNC2=O)sc2c1c(=O)n(CC(F)F)c(=O)n2CC1COC1` [Example 222, 3-(2,2-Difluoroethyl)-5-methyl-1-(oxetan-3-ylmethyl)-6-[(2-oxoimidazolidin-1-yl)methyl]thieno[2,3-d]pyrimidine-2,4(1H,3H)-dione], which IC50 is on record?
Its IC50 is 13 nM.

For `Cc1c(CN2CCNC2=O)sc2c1c(=O)n(CC(F)F)c(=O)n2C` [Example 223, 3-(2,2-Difluoroethyl)-1,5-dimethyl-6-[(2-oxoimidazolidin-1-yl)methyl]thieno[2,3-d]pyrimidine-2,4(1H,3H)-dione], which IC50 is on record?
The IC50 was 14 nM.

Which IC50 does the source give for `COCCn1c(=O)n(CCCF)c(=O)c2c(C)c(CN3CCNC3=O)sc21` [Example 224, 3-(3-Fluoropropyl)-1-(2-methoxyethyl)-5-methyl-6-[(2-oxoimidazolidin-1-yl)methyl]thieno[2,3-d]pyrimidine-2,4(1H,3H)-dione] here?
Its IC50 is 31 nM.

With `Cc1c(CN2CCNC2=O)sc2c1c(=O)n(CC(C)(C)F)c(=O)n2CCC(F)(F)F` [Example 225, 3-(2-Fluoro-2-methylpropyl)-5-methyl-6-[(2-oxoimidazolidin-1-yl)methyl]-1-(3,3,3-trifluoropropyl)thieno[2,3-d]pyrimidine-2,4(1H,3H)-dione] as the molecule, how does the IC50 read?
Its IC50 is 12 nM.

For `COCCn1c(=O)n(CC(C)(C)F)c(=O)c2c(C)c(CN3CCNC3=O)sc21` [Example 226, 3-(2-Fluoro-2-methylpropyl)-1-(2-methoxyethyl)-5-methyl-6-[(2-oxoimidazolidin-1-yl)methyl]thieno[2,3-d]pyrimidine-2,4(1H,3H)-dione], which IC50 is on record?
The IC50 was 36 nM.

With `Cc1c(CN2CCNC2=O)sc2c1c(=O)n(CC(C)(C)O)c(=O)n2CCC(F)(F)F` [Example 227, 3-(2-Hydroxy-2-methylpropyl)-5-methyl-6-[(2-oxoimidazolidin-1-yl)methyl]-1-(3,3,3-trifluoropropyl)thieno[2,3-d]pyrimidine-2,4(1H,3H)-dione] as the molecule, how does the IC50 read?
Its IC50 is 22 nM.

Which IC50 does the source give for `COCCn1c(=O)n(CC(C)(C)O)c(=O)c2c(C)c(CN3CCNC3=O)sc21` [Example 228, 3-(2-Hydroxy-2-methylpropyl)-1-(2-methoxyethyl)-5-methyl-6-[(2-oxoimidazolidin-1-yl)methyl]thieno[2,3-d]pyrimidine-2,4(1H,3H)-dione] here?
The IC50 was 130 nM.

Which IC50 does the source give for `COCCn1c(=O)c2c(C)c(CN3CCNC3=O)sc2n(CCC(F)(F)F)c1=O` [Example 229, 3-(2-Methoxyethyl)-5-methyl-6-[(2-oxoimidazolidin-1-yl)methyl]-1-(3,3,3-trifluoropropyl)thieno[2,3-d]pyrimidine-2,4(1H,3H)-dione] here?
Its IC50 is 4 nM.

For `COCCn1c(=O)c2c(C)c(CN3CCNC3=O)sc2n(CCCF)c1=O` [Example 230, 1-(3-Fluoropropyl)-3-(2-methoxyethyl)-5-methyl-6-[(2-oxoimidazolidin-1-yl)methyl]thieno[2,3-d]pyrimidine-2,4(1H,3H)-dione], which IC50 is on record?
The IC50 was 12 nM.

`COCCn1c(=O)c2c(C)c(CN3CCNC3=O)sc2n(CCOC)c1=O` [Example 231, 1,3-Bis(2-methoxyethyl)-5-methyl-6-[(2-oxoimidazolidin-1-yl)methyl]thieno[2,3-d]pyrimidine-2,4(1H,3H)-dione] was tested. Which IC50 did it give?
The IC50 was 21 nM.

For `CCOCCn1c(=O)n(CCOC)c(=O)c2c(C)c(CN3CCNC3=O)sc21` [Example 232, 1-(2-Ethoxyethyl)-3-(2-methoxyethyl)-5-methyl-6-[(2-oxoimidazolidin-1-yl)methyl]thieno[2,3-d]pyrimidine-2,4(1H,3H)-dione], which IC50 is on record?
The IC50 was 93 nM.

For `COC(C)(C)Cn1c(=O)c2c(C)c(CN3CCNC3=O)sc2n(CCC(F)(F)F)c1=O` [Example 236, 3-(2-Methoxy-2-methylpropyl)-5-methyl-6-[(2-oxoimidazolidin-1-yl)methyl]-1-(3,3,3-trifluoropropyl)thieno[2,3-d]pyrimidine-2,4(1H,3H)-dione], which IC50 is on record?
Its IC50 is 6 nM.

With `COC(C)(C)Cn1c(=O)c2c(C)c(CN3CCNC3=O)sc2n(CCCF)c1=O` [Example 237, 1-(3-Fluoropropyl)-3-(2-methoxy-2-methylpropyl)-5-methyl-6-[(2-oxoimidazolidin-1-yl)methyl]thieno[2,3-d]pyrimidine-2,4(1H,3H)-dione] as the molecule, how does the IC50 read?
Its IC50 is 17 nM.

`COCCn1c(=O)n(CC(C)(C)OC)c(=O)c2c(C)c(CN3CCNC3=O)sc21` [Example 238, 1-(2-Methoxyethyl)-3-(2-methoxy-2-methylpropyl)-5-methyl-6-[(2-oxoimidazolidin-1-yl)methyl]thieno[2,3-d]pyrimidine-2,4(1H,3H)-dione] was tested. Which IC50 did it give?
Its IC50 is 99 nM.

How did the IC50 turn out when `CCN1CCN(Cc2sc3c(c2C)c(=O)n(CCc2ccccc2)c(=O)n3CCOC)C1=O` [Example 239, 6-[(3-Ethyl-2-oxoimidazolidin-1-yl)methyl]-1-(2-methoxyethyl)-5-methyl-3-(2-phenylethyl)thieno[2,3-d]pyrimidine-2,4(1H,3H)-dione] was run?
Its IC50 is 11 nM.

Which IC50 does the source give for `CCCN1CCN(Cc2sc3c(c2C)c(=O)n(CCc2ccccc2)c(=O)n3CCOC)C1=O` [Example 240, 1-(2-Methoxyethyl)-5-methyl-6-[(2-oxo-3-propylimidazolidin-1-yl)methyl]-3-(2-phenylethyl)thieno[2,3-d]pyrimidine-2,4(1H,3H)-dione] here?
Its IC50 is 19 nM.

How did the IC50 turn out when `CCn1c(=O)c2c(C)c(Cn3cc[nH]c3=O)sc2n(CCC(F)(F)F)c1=O` [Example 241, 3-Ethyl-5-methyl-6-[(2-oxo-2,3-dihydro-1H-imidazol-1-yl)methyl]-1-(3,3,3-trifluoropropyl)thieno[2,3-d]pyrimidine-2,4(1H,3H)-dione] was run?
The IC50 was 1.2 nM.

`Cc1c(Cn2cc[nH]c2=O)sc2c1c(=O)n(C(C)C)c(=O)n2CCC(F)(F)F` [Example 245, 3-Isopropyl-5-methyl-6-[(2-oxo-2,3-dihydro-1H-imidazol-1-yl)methyl]-1-(3,3,3-trifluoropropyl)thieno[2,3-d]pyrimidine-2,4(1H,3H)-dione] was tested. Which IC50 did it give?
Its IC50 is 2.1 nM.

How did the IC50 turn out when `COCCn1c(=O)n(C(C)C)c(=O)c2c(C)c(Cn3cc[nH]c3=O)sc21` [Example 246, 3-Isopropyl-1-(2-methoxyethyl)-5-methyl-6-[(2-oxo-2,3-dihydro-1H-imidazol-1-yl)methyl]thieno[2,3-d]pyrimidine-2,4(1H,3H)-dione] was run?
Its IC50 is 4.7 nM.

With `CCn1c(=O)c2c(C)c(Cn3cc(C)[nH]c3=O)sc2n(CCC(F)(F)F)c1=O` [Example 250, 3-Ethyl-5-methyl-6-[(4-methyl-2-oxo-2,3-dihydro-1H-imidazol-1-yl)methyl]-1-(3,3,3-trifluoropropyl)thieno[2,3-d]pyrimidine-2,4(1H,3H)-dione] as the molecule, how does the IC50 read?
The IC50 was 18 nM.

With `CCn1c(=O)c2c(C)c(Cn3c(C)c[nH]c3=O)sc2n(CCC(F)(F)F)c1=O` [Example 251, 3-Ethyl-5-methyl-6-[(5-methyl-2-oxo-2,3-dihydro-1H-imidazol-1-yl)methyl]-1-(3,3,3-trifluoropropyl)thieno[2,3-d]pyrimidine-2,4(1H,3H)-dione] as the molecule, how does the IC50 read?
The IC50 was 1.3 nM.

For `CCn1c(=O)c2c(C)c(Cn3c(C)c[nH]c3=O)sc2n(CCOC)c1=O` [Example 252], which IC50 is on record?
The IC50 was 4.1 nM.

Which IC50 does the source give for `Cc1c(Cn2nc[nH]c2=O)sc2c1c(=O)n(C(C)C)c(=O)n2CCC(F)(F)F` [Example 253, 3-Isopropyl-5-methyl-6-[(5-oxo-4,5-dihydro-1H-1,2,4-triazol-1-yl)methyl]-1-(3,3,3-trifluoropropyl)thieno[2,3-d]pyrimidine-2,4(1H,3H)-dione] here?
Its IC50 is 9.9 nM.
